In PMC5605456 (Biochemistry, 2017):
Where two headings read alike, the source gives them in different places.

Tests used:
CmlI [1] = target: T1, CmlI (Streptomyces venezuelae, UniProt F2RB83); test: stopped-flow at […] nm, hyperbolic fit of reciprocal relaxation times; format: binding
CmlI [2] = target: T1, CmlI; test: as above; format: binding; remark: listed apart in the source

T1 sequence (F2RB83 whole entry): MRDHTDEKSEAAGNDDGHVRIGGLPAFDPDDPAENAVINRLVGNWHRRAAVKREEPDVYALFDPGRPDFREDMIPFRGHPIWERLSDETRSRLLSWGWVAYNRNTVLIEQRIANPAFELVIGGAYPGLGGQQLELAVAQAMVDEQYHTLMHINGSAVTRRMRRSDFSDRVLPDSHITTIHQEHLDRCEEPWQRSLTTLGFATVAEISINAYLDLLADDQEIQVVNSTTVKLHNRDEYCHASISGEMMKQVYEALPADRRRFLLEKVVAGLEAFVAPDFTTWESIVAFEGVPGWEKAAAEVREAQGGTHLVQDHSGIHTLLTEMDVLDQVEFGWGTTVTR

Structure (SMILES)	Kd (CmlI [1]) [mM]	Kd (CmlI [2]) [mM]
Nc1ccc([C@@H](O)[C@@H](CO)NC(=O)C(Cl)Cl)cc1 [NH2-CAM, D-threo-1-(4-aminophenyl)-2-dichloroacetylamino-1,3-propanediol]	8.5 ± 1.5	
O=C(N[C@H](CO)[C@H](O)c1ccc(NO)cc1)C(Cl)Cl [NH(OH)-CAM]		1.1 ± 0.05
O=Nc1ccc([C@@H](O)[C@@H](CO)NC(=O)C(Cl)Cl)cc1 [NO-CAM]	8.6 ± 1	
